Measurements taken from US11291656B2, “Pramipexole transdermal delivery system and uses thereof” (TRANSWELL BIOTECH CO., LTD., priority 2016, dated 2022).
Converted amounts (≈) assume the structure as drawn. Read-outs that look alike come from different tables or passages of the source.

Legend:
[1] = physchem
Protocol: Numerous permeation enhancers were evaluated to identify suitable permeation enhancers, including permeation enhancers listed in Table 4 below that lists solubility of pramipexole in the respective permeation enhancers.

In the case of `CCCN[C@H]1CCc2nc(N)sc2C1` [Pramipexole], the solubility ([1]; Brij 30, organic solvent or mixture) is reported as 111 mg/mL (≈ 526 mM), the solubility ([1]; Transcutal P, organic solvent or mixture) is reported as 122 mg/mL (≈ 577 mM) and the solubility ([1]; Tween 80, organic solvent or mixture) is reported as 86.1 mg/mL (≈ 407 mM). For the same compound, the solubility ([1]; ethyl acetate, organic solvent or mixture) was 34.3 mg/mL (≈ 162 mM), the solubility ([1]; isopropyl alcohol, organic solvent or mixture) was 107 mg/mL (≈ 505 mM) and the solubility ([1]; limonene, organic solvent or mixture) was 5.34 mg/mL (≈ 25.3 mM). It also gave a solubility ([1]; methanol, organic solvent or mixture) of 100 mg/mL (≈ 474 mM), a solubility ([1]; methyl laurate, oil or lipid) of 7.07 mg/mL (≈ 33.5 mM) and a solubility ([1]; octanol, organic solvent or mixture) of 113 mg/mL (≈ 535 mM). For the same compound, the solubility ([1]; oleic acid, oil or lipid) was 59 mg/mL (≈ 279 mM), the solubility ([1]; oleyl alcohol, oil or lipid) was 113 mg/mL (≈ 535 mM) and the solubility ([1]; propylene glycol (PG), organic solvent or mixture) was 55.6 mg/mL (≈ 263 mM). The API solubility (in adhesive DURO-TAK 87-2054 (acrylate-vinylacetate, —COOH)) was “adequate solubility”, the API solubility (in adhesive DURO-TAK 87-2054 (acrylate-vinylacetate, —COOH), listed as API) was 10% and the API solubility (in adhesive DURO-TAK 87-2510 (Acrylic, —OH)) was “adequate solubility”. For the same compound, the API solubility (in adhesive DURO-TAK 87-2510 (Acrylic, —OH), listed as API) was 5%, the API solubility (in adhesive DURO-TAK 87-2979 (acrylate-vinylacetate, —COOOH/—OH)) was “adequate solubility” and the API solubility (in adhesive DURO-TAK 87-2979 (acrylate-vinylacetate, —COOOH/—OH), listed as API) was 10%. The API solubility (in adhesive DURO-TAK 87-4287 (acrylate-vinylacetate, —OH)) was “adequate solubility” and the API solubility (in adhesive DURO-TAK 87-4287 (acrylate-vinylacetate, —OH), listed as API) was 8%.
